Assays:
beef steers = experiment: enteric methane emission, SF6 tracer technique (Example 3); type: in vivo, crossbred yearling steers
Method: Methane emission was measured in all steers for five consecutive days using the SF6 tracer technique (Johnson et al., 1994; Henry et al., 2020). In this technique, the steers received a calibrated permeation tube filled with SF6 (3.1 g+0.2 g) before the measurement period. The average SF6 release rate was […]+1.1 mg/d. After five days of training, a vacuum gas collector canister was attached to each animal to collect a sample of daily gas production. Each day at the same hour, a new vacuum canister was replaced throughout the five days of the measurement period. Five collection canisters were used to determine environmental CH4 and SF6 concentrations. A gas sample was taken from each canister and conserved in 120 ml bottles for posterior analysis of CH4 and SF6 using gas chromatography. For the current experiment, only steers with a least three successful days of collection and measurement were considered in the final analysis. Gas samples were analyzed by gas chromatography (Agilent 7820A GC, Agilent Technologies, Palo Alto, CA). A flame ionization and electron capture detector were used for CH4 and SF6 analysis, respectively, with a capillary column (Plot Fused Silica 25 m×0.32 mm, Coating Molsieve 5A, Varian CP7536, Varian Inc., Lake Forest, CA). The injector, column and detector temperatures for CH4 analysis were 80, 160 and 200° C., respectively. For SF6, temperatures were 50, 30 and 300° C. for the injector, the column and the detector, respectively. The carrier gas for CH4 and SF6 was N2. The emissions of CH4 were calculated according to the next equation:
[formula] • QCH4=CH4 emissions per animal (g/day) • QSF6=SF6 release rate (mg/day) • [CH4]γ=the concentration of CH4 in the animals' collection canister • [CH4]β=the concentration of CH4 in the environmental collection canister • [SF6]γ=the concentration of SF6 in the animals' collection canister • [SF6]β=the concentration of SF6 in the environmental collection canister

rumen microbiota = experiment: Gas Production Test, in vitro rumen fermentation model (Example 1); type: cell-based; details: 15 mg N per flask, 72 hours incubation
Method: The in vitro model used to simulate rumen digestion and utilization of the products is the Gas Production Test protocol, adapted for protein digestibility, as described in more detail in the following paragraph.
Approximately 1 liter of rumen fluid was collected from two different rumen-fistulated animals in the morning. Rumen fluid was strained through a cheesecloth, kept at 39° C. under CO2 and then diluted 1:19 with a nitrogen-free buffer and mineral solution containing 10.03 g NaHCO3, 1.43 g Na2HPO4, 1.55 g KH2PO4, 0.15 g MgSO4·7H2O, 0.52 g Na2S, 0.017 g CaCl2·2H2O, 0.015 g MnCl2·4H2O, 0.002 g […], 0.012 g FeCl3·6H2O and 0.125 mg resazurin per liter.
To ensure the rumen fluid was depleted of free nitrogen and to ensure nitrogen would be the limiting factor for the microbial growth at the start of the experiment, the buffered rumen fluid was pre-incubated for 4 hours at 39° C. with a carbohydrate overload of glucose, xylose and soluble starch, each at 3.33 g/l. During this pre-incubation, all nitrogen available in the rumen fluid would be incorporated into bacterial protein and other bacterial nitrogen-containing components.
Each product was weighed into different glass bottles on an isonitrogenous base, providing 15 mg N per flask. Then, 60 ml of the pre-incubated buffered rumen fluid was added, under continuous flushing with CO2. Flasks were closed with rubber stoppers and placed in a shaking water bath with 50 movements per minute at 39° C. to start the incubation period. The gas production of each flask was recorded continuously for 72 hours using a fully automated system. All test products including a blank (i.e. no product added to the flask of rumen fluid) were tested in one run in triplicate.
The cumulative gas production was measured continuously for 72 hours.

[1] = five consecutive days, SF6 tracer

NC(N)=O [Urea, urea]
DM intake (beef steers; Table 7 (methane measurement)): 6.08 kg/day | Methane emission (g/kg ADG) (beef steers; [1]): 213.79 g/kg ADG | Methane emission (g/kg DMI) (beef steers; [1]): 36.59 g/kg DMI | Methane emission (g/kg OMI) (beef steers; [1]): 38.68 g/kg OMI | maximum gas production rate (rumen microbiota): 17 mL/h | time after which gas production stopped / maximum cumulative gas production (end level) was reached (rumen microbiota): 30 h | lag period of cumulative gas production (rumen microbiota; buffered rumen fluid, 39° C.): approximately 5 hours
